A value given as a limit tells only on which side of the number the result lay.

Format in all cases: cell-based
Assay [1] relates to Wnt activity (Sp5-Luc reporter, SW480 colon carcinoma cells). Description: Screening assay for Wnt activity: Sp5-Luc reporter gene assay in SW480 cells. The conditions noted are these: Homo sapiens; for inhibition at 10 µM: 10 μM compound, read-out: percent inhibition at 10 μM (given for EC50 of >10 μM); for EC50: overnight incubation, 10-point dose-response from 10 μM. In outline: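 SW480 cells stably carrying Sp5-Luc reporter (eight TCF/LEF sites) plated at 4,000/well in 1% FBS medium with compound (10-point 1:3 series from 10 μM, 0.1% DMSO) overnight at 37 °C. BrightGlo luminescence normalized to DMSO; EC50 by four-parameter fit, else % inhibition at 10 μM.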
A general note: Reporter assays use an easily measured gene product as a stand-in for the process of interest.

Assay [2] relates to primary human fibroblasts derived from IPF patients (LL29 cells), α-smooth muscle actin (αSMA). As to the kind of experiment: Inhibition of the fibrotic process: TGF-β1-treated primary human fibroblasts from IPF patients, αSMA staining. The conditions noted are these: Fibroblast, 96 h, 4 days; for EC50: LL29 fibroblasts from IPF patients, TGF-β1 20 ng/mL, inhibition of fibrotic process; for inhibition at 10 µM: LL29 fibroblasts, TGF-β1 treated, read-out: percent inhibition at 10 μM (given for EC50 of >10 μM). Summed up:
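LL29 IPF-patient lung fibroblasts in 1% FBS F12 were given compounds (11-point, 10 μM to […], 0.1% DMSO) plus TGF-β1 20 ng/mL for 4 days at 37 °C. αSMA-positive fraction of live (SYTOX-negative) cells was imaged and normalized to TGF-β1/DMSO wells. EC50 by non-linear regression, or % inhibition at 10 μM if >10 μM.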

The next assay relates to SW480 colon cancer cells. As to the kind of experiment: Cell viability assay (CellTiter-Blue), four days. The conditions noted are these: Homo sapiens, 96 h; for EC50: CellTiter-Blue cell viability; for inhibition at 10 µM: read-out: percent inhibition at 10 μM (given for EC50 of >10 μM). Summed up:
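SW480 colon cancer cells (~2×10^3/well) exposed to 8-point 1:3 dilutions from 10 μM to 0.0045 μM for four days at 37 °C/5% CO2. Viability read by resazurin (CellTiter-Blue) fluorescence after ~3 h, Ex 560/Em 590 nm. EC50 from non-linear regression; percent inhibition at 10 μM given when EC50 >10 μM.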

By inhibition is commonly meant the relative decrease from the control value, in per cent. Usually EC50 stands for the concentration at which the effect is half-maximal. Consider `CC(C)C(=O)Nc1cncc(-c2ccc3[nH]nc(-c4nc5c(N6CCN(C)CC6)ccnc5[nH]4)c3n2)c1` [Compound 233, N-(5-(3-(7-(4-methylpiperazin-1-yl)-3H-imidazo[4,5-b]pyridin-2-yl)-1H-pyrazolo [4,3-b]pyridin-5-yl)pyridin-3-yl)isobutyramide], for which the inhibition at 10 µM in assay [1] was 2.3%; with SW480 colon cancer cells it was 0%. Moreover, the EC50 in assay [1] was more than 10 µM; in assay [2], 4.84 µM; in the assay with SW480 colon cancer cells, more than 10 µM.

As to `CN1CCN(c2ccnc3[nH]c(-c4n[nH]c5ccc(-c6cncc(NC(=O)C7CCCC7)c6)nc45)nc23)CC1` [Compound 246, N-(5-(3-(7-(4-Methylpiperazin-1-yl)-3H-imidazo[4,5-b]pyridin-2-yl)-1H-pyrazolo[4,3-b]pyridin-5-yl)pyridin-3-yl)cyclopentanecarboxamide], the inhibition at 10 µM in assay [1] came out at 4.2%; with SW480 colon cancer cells it was 0%. In addition, the EC50 in assay [1] is more than 10 µM; in assay [2] it was 2.24 µM; in the assay with SW480 colon cancer cells, more than 10 µM.

Take `CN1CCN(c2ccnc3[nH]c(-c4n[nH]c5ccc(-c6cncnc6)nc45)nc23)CC1` [Compound 251, 3-(7-(4-Methylpiperazin-1-yl)-3H-imidazo[4,5-b]pyridin-2-yl)-5-(pyrimidin-5-yl)-1H-pyrazolo[4,3-b]pyridine]: the results for the inhibition at 10 µM (in assay [1]; in the assay on SW480 colon cancer cells) were 16.5% and 0%, respectively. For the same compound, the EC50 in assay [1] was more than 10 µM; in assay [2], 4.36 µM; with SW480 colon cancer cells, more than 10 µM.

With `c1cncc(-c2ccc3[nH]nc(-c4nc5cccnc5[nH]4)c3n2)c1` [Compound 256, 3-(3H-imidazo[4,5-b]pyridin-2-yl)-5-(pyridin-3-yl)-1H-pyrazolo[4,3-b]pyridine], the results for the inhibition at 10 µM (in assay [1]; in assay [2]; in the assay with SW480 colon cancer cells) were 43.4%, 10.4% and 22.2%, respectively. In addition, the EC50 (in assay [1]; in assay [2]; in the assay with SW480 colon cancer cells) was more than 10 µM in each case.

For `O=C(Cc1ccccc1)Nc1cncc(-c2ccc3[nH]nc(-c4nc5cccnc5[nH]4)c3n2)c1` [Compound 262, N-(5-(3-(3H-imidazo[4,5-b]pyridin-2-yl)-1H-pyrazolo[4,3-b]pyridin-5-yl)pyridin-3-yl)-2-phenylacetamide], the inhibition at 10 µM is 7.6% in assay [1], 0% in assay [2] and 5.5% in the assay with SW480 colon cancer cells. The EC50 (in assay [1]; in assay [2]; in the assay on SW480 colon cancer cells) was more than 10 µM throughout.

As for `CC(C)(C)CC(=O)Nc1cncc(-c2ccc3[nH]nc(-c4nc5cccnc5[nH]4)c3n2)c1` [Compound 268, N-(5-(3-(3H-Imidazo[4,5-b]pyridin-2-yl)-1H-pyrazolo[4,3-b]pyridin-5-yl)pyridin-3-yl)-3,3-dimethylbutanamide], the inhibition at 10 µM came out at 1.9% in assay [1] and 0% in the assay on SW480 colon cancer cells. The EC50 in assay [1] was more than 10 µM; in assay [2], 7.2 µM; in the assay with SW480 colon cancer cells it was more than 10 µM.

Take `O=C(Nc1cncc(-c2ccc3[nH]nc(-c4nc5cccnc5[nH]4)c3n2)c1)C1CCCCC1` [Compound 275, N-(5-(3-(3H-Imidazo[4,5-b]pyridin-2-yl)-1H-pyrazolo[4,3-b]pyridin-5-yl)pyridin-3-yl)cyclohexanecarboxamide]: the inhibition at 10 µM was determined as 3.1% in assay [1] and 2.6% with SW480 colon cancer cells. Also, the results for the concentration giving a half-maximal response (EC50) (in assay [1]; in assay [2]; in the assay with SW480 colon cancer cells) were more than 10 µM, 3.96 µM and more than 10 µM, respectively.

As to `CCC(=O)Nc1cncc(-c2ccc3[nH]nc(-c4nc5c(-c6ccsc6)ccnc5[nH]4)c3n2)c1` [Compound 281, N-(5-(3-(7-(thiophen-3-yl)-3H-imidazo[4,5-b]pyridin-2-yl)-1H-pyrazolo[4,3-b]pyridin-5-yl)pyridin-3-yl)propionamide], the inhibition at 10 µM in assay [1] was 28.3%; in assay [2] it was 21.4%; with SW480 colon cancer cells, 24.2%. The EC50 (in assay [1]; in assay [2]; with SW480 colon cancer cells) was more than 10 µM in each case.

Take `CN(C)c1cncc(-c2ccc3[nH]nc(-c4nc5c(-c6cccs6)ccnc5[nH]4)c3n2)c1` [Compound 343, N,N-dimethyl-5-(3-(7-(thiophen-2-yl)-3H-imidazo[4,5-b]pyridin-2-yl)-1H-pyrazolo [4,3-b]pyridin-5-yl)pyridin-3-amine]: the inhibition at 10 µM in assay [1] came to 31.7%; in the assay with SW480 colon cancer cells, 17.5%. Further, the EC50 is more than 10 µM in assay [1], 1.18 µM in assay [2] and more than 10 µM with SW480 colon cancer cells.

Turning to `Cc1ccc(-c2ccnc3[nH]c(-c4n[nH]c5ccc(-c6cncc(NC(=O)C7CCCC7)c6)nc45)nc23)s1` [Compound 414, N-(5-(3-(7-(5-Methylthiophen-2-yl)-3H-imidazo[4,5-b]pyridin-2-yl)-1H-pyrazolo[4,3-b]pyridin-5-yl)pyridin-3-yl)cyclopentanecarboxamide], the inhibition at 10 µM in assay [1] stood at 47%; with SW480 colon cancer cells it was 14.7%. In addition, the EC50 in assay [1] was more than 10 µM; in assay [2], 0.066 µM; with SW480 colon cancer cells, more than 10 µM.

Take `CCNCc1cncc(-c2ccc3[nH]nc(-c4nc5c(-c6cc(F)cc(NCCN(C)C)c6)ccnc5[nH]4)c3n2)c1` [Compound 454, N^1-(3-(2-(5-(5-((ethylamino)methyl)pyridin-3-yl)-1H-pyrazolo[4,3-b]pyridin-3-yl)-3H-imidazo[4,5-b]pyridin-7-yl)-5-fluorophenyl)-N^2,N^2-dimethylethane-1,2-diamine]: the inhibition at 10 µM in assay [1] was 43.4%; in the assay with SW480 colon cancer cells, 42.2%. Further, the results for the EC50 (in assay [1]; in assay [2]; in the assay with SW480 colon cancer cells) were more than 10 µM, 3.51 µM and more than 10 µM, respectively.

In the case of `CCCCC(=O)Nc1cncc(-c2ccc3[nH]nc(-c4nc5c(-c6cc(F)cc(NCCN(C)C)c6)ccnc5[nH]4)c3n2)c1` [Compound 467, N-(5-(3-(7-(3-((2-(dimethylamino)ethyl)amino)-5-fluorophenyl)-3H-imidazo[4,5-b]pyridin-2-yl)-1H-pyrazolo[4,3-b]pyridin-5-yl)pyridin-3-yl)pentanamide], the inhibition at 10 µM was 34.1% in assay [1] and 2.7% in the assay with SW480 colon cancer cells. For the same compound, the EC50 in assay [1] was more than 10 µM; in assay [2], 2.26 µM; in the assay on SW480 colon cancer cells it was more than 10 µM.

For the compound `CN(C)CCNc1cc(F)cc(-c2ccnc3[nH]c(-c4n[nH]c5ccc(-c6ccccn6)nc45)nc23)c1` [Compound 476, N^1-(3-Fluoro-5-(2-(5-(pyridin-2-yl)-1H-pyrazolo[4,3-b]pyridin-3-yl)-3H-imidazo[4,5-b]pyridin-7-yl)phenyl)-N^2,N^2-dimethylethane-1,2-diamine], in assay [1], the inhibition at 10 µM was 15.5%. The EC50 is more than 10 µM in assay [1], 4.41 µM in assay [2] and 9.02 µM with SW480 colon cancer cells.

Regarding `CS(=O)(=O)NCc1cc(F)cc(-c2ccnc3[nH]c(-c4n[nH]c5ccc(-c6cncc(NC(=O)c7ccccc7)c6)nc45)nc23)c1` [Compound 487, N-(5-(3-(7-(3-Fluoro-5-(methylsulfonamidomethyl)phenyl)-3H-imidazo[4,5-b]pyridin-2-yl)-1H-pyrazolo[4,3-b]pyridin-5-yl)pyridin-3-yl)benzamide], the inhibition at 10 µM in assay [1] turned out to be 7.1%; in assay [2], 0%; in the assay on SW480 colon cancer cells it was 0.6%. Moreover, the concentration for a half-maximal effect (EC50) (in assay [1]; in assay [2]; in the assay on SW480 colon cancer cells) was more than 10 µM each time.

For `CCCC(=O)Nc1cncc(-c2ccc3[nH]nc(-c4nc5c(-c6cc(F)cc(CNS(C)(=O)=O)c6)ccnc5[nH]4)c3n2)c1` [Compound 493, N-(5-(3-(7-(3-fluoro-5-(methylsulfonamidomethyl)phenyl)-3H-imidazo[4,5-b]pyridin-2-yl)-1H-pyrazolo[4,3-b]pyridin-5-yl)pyridin-3-yl)butyramide], the inhibition at 10 µM is 14.8% in assay [1], 0% in assay [2] and 3.9% with SW480 colon cancer cells. Besides, the EC50 (in assay [1]; in assay [2]; in the assay on SW480 colon cancer cells) was more than 10 µM each time.

Turning to `CS(=O)(=O)NCc1cc(F)cc(-c2ccnc3[nH]c(-c4n[nH]c5ccc(-c6cncnc6)nc45)nc23)c1` [Compound 503, N-(3-Fluoro-5-(2-(5-(pyrimidin-5-yl)-1H-pyrazolo[4,3-b]pyridin-3-yl)-3H-imidazo[4,5-b]pyridin-7-yl)benzyl)methanesulfonamide], the inhibition at 10 µM in assay [1] came to 14.1%; in assay [2] it was 0%; in the assay with SW480 colon cancer cells, 0.9%. In addition, the EC50 (in assay [1]; in assay [2]; in the assay on SW480 colon cancer cells) was more than 10 µM throughout.

On to `Fc1cccc(-c2ccnc3[nH]c(-c4n[nH]c5ccc(C6CCNCC6)nc45)nc23)c1` [Compound 505, 3-(7-(3-fluorophenyl)-3H-imidazo[4,5-b]pyridin-2-yl)-5-(piperidin-4-yl)-1H-pyrazolo[4,3-b]pyridine], for which, in assay [1], the inhibition at 10 µM was found to be 16%. The EC50 in assay [1] was more than 10 µM; in assay [2], 4.93 µM; in the assay on SW480 colon cancer cells it was 8.3 µM.

(Values after US10329309B2, “3-(3H-imidazo[4,5-B]pyridin-2-yl)-1H-pyrazolo[4,3-B]pyridines and therapeutic uses thereof” (Samumed, LLC, priority 2015, dated 2019).)
